In BindingDB's records for doi:10.7270/Q2D798VP (Broad Institute, 2009):
Where a name gives a salt, the structure may show the parent alone.

Molecular target: T1, Zinc finger protein mex-5 (Caenorhabditis elegans, UniProt Q9XUB2)
T1 sequence (Q9XUB2 whole entry): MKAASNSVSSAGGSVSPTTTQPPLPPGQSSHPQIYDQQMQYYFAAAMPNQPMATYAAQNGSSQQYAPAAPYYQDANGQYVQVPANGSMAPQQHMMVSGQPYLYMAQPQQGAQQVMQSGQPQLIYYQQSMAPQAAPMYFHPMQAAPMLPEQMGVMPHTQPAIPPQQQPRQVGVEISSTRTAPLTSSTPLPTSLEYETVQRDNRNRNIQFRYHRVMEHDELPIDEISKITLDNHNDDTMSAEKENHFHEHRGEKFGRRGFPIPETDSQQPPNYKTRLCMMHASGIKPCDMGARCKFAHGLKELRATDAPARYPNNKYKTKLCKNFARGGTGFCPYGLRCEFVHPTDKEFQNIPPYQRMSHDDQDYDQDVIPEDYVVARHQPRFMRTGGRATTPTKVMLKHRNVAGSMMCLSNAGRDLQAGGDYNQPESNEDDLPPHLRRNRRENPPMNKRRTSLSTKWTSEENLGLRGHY
Experiment: potency of MEX-5 RNA-binding blockers – biochemical, C. elegans, fluorescence polarization, dose response (AID 1960)

Q: Which EC50 does the source give for `CN(C)[C@@H]1C(=O)C(C(N)=O)C(=O)[C@@]2(O)C(=O)C3C(=O)c4c(O)cccc4[C@@](C)(O)[C@H]3[C@H](O)[C@@H]12` (stereo partly drawn) [(2E,4S,4aR,5S,5aR,6S,12aS)-2-[azanyl(oxidanyl)methylidene]-4-(dimethylamino)-6-methyl-5,6,10,11,12a-pentakis(oxidanyl)-4,4a,5,5a-tetrahydrotetracene-1,3,12-trione] here?
A: The EC50 was 29.9 µM.

Q: For `COc1ccc(C=C2CCCC(C(=O)C(F)(F)F)C2=O)cc1OC` (stereo unspecified) [(2E,6Z)-2-(3,4-dimethoxybenzylidene)-6-(2,2,2-trifluoro-1-hydroxyethylidene)cyclohexanone], which EC50 is on record?
A: Its EC50 is 254 µM.

Q: For `CN(C)c1ccc(O)c2c1CC1CC3C(N(C)C)C(=O)C(C(N)=O)C(=O)[C@@]3(O)C(=O)C1C2=O` (stereo partly drawn) [(2E,12aS)-2-[azanyl(oxidanyl)methylidene]-4,7-bis(dimethylamino)-10,11,12a-tris(oxidanyl)-4a,5,5a,6-tetrahydro-4H-tetracene-1,3,12-trione;hydrochloride], which EC50 is on record?
A: Its EC50 is 37 µM.

Q: With `COc1ccc(N=C(C)c2sc3ccccc3c2O)cc1` [(2Z)-2-[1-(4-methoxyanilino)ethylidene]-1-benzothiophen-3-one] as the compound, how does the EC50 read?
A: The EC50 was 17.7 µM.

Q: For `N#CC(C(=O)c1cc2ccccc2o1)c1nc2ccccc2s1` (stereo unspecified) [(2Z)-3-(1-benzofuran-2-yl)-2-(3H-1,3-benzothiazol-2-ylidene)-3-oxidanylidene-propanenitrile], which EC50 is on record?
A: The EC50 was greater than 300 µM.

Q: For `C=c1cc(O)c(CN(C)C)c2oc(=Cc3ccco3)c(O)c12` [(2Z)-7-[(dimethylamino)methyl]-2-(furan-2-ylmethylidene)-6-hydroxy-4-methyl-1-benzofuran-3-one], which EC50 is on record?
A: The EC50 was 39.8 µM.

Q: Which EC50 does the source give for `C[C@H]1c2cccc(O)c2C(=O)C2C(=O)[C@]3(O)C(=O)C(C(N)=O)C(=O)[C@@H](N(C)C)C3C(O)C21` (stereo partly drawn) [(2Z,4S,5S,6R,12aS)-2-[amino(hydroxy)methylidene]-4-(dimethylamino)-5,10,11,12a-tetrahydroxy-6-methyl-4a,5,5a,6-tetrahydro-4H-tetracene-1,3,12-trione;ethanol;hydrate;hydrochloride] here?
A: The EC50 was 45.3 µM.

Q: Which EC50 does the source give for `Cn1c2cc(=N)ccc-2c2ccc(N)cc2c1-c1ccccc1` [(3-amino-5-methyl-6-phenyl-phenanthridin-5-ium-8-yl)amine;bromide] here?
A: The EC50 was 5.36 µM.

Q: Which EC50 does the source give for `O=C1N=c2ccccc2=C1NNc1cccc(Cl)c1` [(3E)-1H-indole-2,3-dione 3-[(3-chlorophenyl)hydrazone]] here?
A: The EC50 was 45.4 µM.

Q: Which EC50 does the source give for `Cc1ccc2oc(=O)c(CC(=O)CC(C)C)nc2c1` [(3Z)-3-(2-keto-4-methyl-pentylidene)-6-methyl-4H-1,4-benzoxazin-2-one] here?
A: The EC50 was greater than 300 µM.

Q: `COc1ccc(C(=O)CC2=NCC3c4ccccc4CCN3C2=O)cc1` (stereo unspecified) [(3Z)-3-[2-(4-methoxyphenyl)-2-oxidanylidene-ethylidene]-2,6,7,11b-tetrahydro-1H-pyrazino[2,1-a]isoquinolin-4-one] was tested. Which EC50 did it give?
A: The EC50 was greater than 300 µM.

Q: `Cc1ccc(C(=O)Cc2nc3ccccc3oc2=O)cc1` [(3Z)-3-[2-(4-methylphenyl)-2-oxidanylidene-ethylidene]-4H-1,4-benzoxazin-2-one] was tested. Which EC50 did it give?
A: Its EC50 is greater than 300 µM.

Q: Which EC50 does the source give for `Cc1ccc2oc(=O)c(CC(=O)c3cccs3)nc2c1` [(3Z)-3-[2-keto-2-(2-thienyl)ethylidene]-6-methyl-4H-1,4-benzoxazin-2-one] here?
A: Its EC50 is 6.82 µM.

Q: Which EC50 does the source give for `Cc1ccc(C(=O)Cc2nc3cc(C)ccc3oc2=O)cc1` [(3Z)-3-[2-keto-2-(p-tolyl)ethylidene]-6-methyl-4H-1,4-benzoxazin-2-one] here?
A: The EC50 was 1.64 µM.

Q: For `Cc1ccc(NC=C2SC(=O)c3ccccc32)c(C)c1` [(3Z)-3-[(2,4-dimethylanilino)methylene]isobenzothiophen-1-one], which EC50 is on record?
A: Its EC50 is greater than 300 µM.

Q: For `O=C(Cc1nc2ccccc2n(-c2ccccc2)c1=O)c1ccccc1` [(3Z)-3-phenacylidene-1-phenyl-4H-quinoxalin-2-one], which EC50 is on record?
A: Its EC50 is 6.1 µM.

Q: How did the EC50 turn out when `O=C(Cc1nc2cc(Cl)ccc2oc1=O)c1cccs1` [(3Z)-6-chloranyl-3-(2-oxidanylidene-2-thiophen-2-yl-ethylidene)-4H-1,4-benzoxazin-2-one] was run?
A: Its EC50 is 153 µM.

Q: Which EC50 does the source give for `O=C(Cc1nc2cc(Cl)ccc2oc1=O)c1ccco1` [(3Z)-6-chloranyl-3-[2-(furan-2-yl)-2-oxidanylidene-ethylidene]-4H-1,4-benzoxazin-2-one] here?
A: The EC50 was greater than 300 µM.

Q: How did the EC50 turn out when `CN=c1scc(C)n1N=Cc1ccc(O)c(O)c1O` [(4E)-2,3-dihydroxy-4-[[(4-methyl-2-methylimino-1,3-thiazol-3-yl)amino]methylidene]cyclohexa-2,5-dien-1-one] was run?
A: Its EC50 is 67.1 µM.

Q: For `Cc1c(NC=C2C(=O)N(C)C(=O)c3ccccc32)c(=O)n(-c2ccccc2)n1C` [(4E)-4-[[(1,5-dimethyl-3-oxo-2-phenyl-4-pyrazolyl)amino]methylidene]-2-methylisoquinoline-1,3-dione], which EC50 is on record?
A: The EC50 was greater than 300 µM.

Q: How did the EC50 turn out when `Cc1nnc(SC(C(=O)O)=C2C(=O)Nc3ccccc32)[nH]1` [(5-Methyl-4H-[1,2,4]triazol-3-ylsulfanyl)-[2-oxo-1,2-dihydro-indol-(3E)-ylidene]-acetic acid] was run?
A: The EC50 was 25.2 µM.

Q: How did the EC50 turn out when `COc1ccc(OC)c(N2C(=O)NC(=O)C(=Cc3c[nH]c4ccccc34)C2=O)c1` [(5E)-1-(2,5-dimethoxyphenyl)-5-(1H-indol-3-ylmethylene)pyrimidine-2,4,6(1H,3H,5H)-trione] was run?
A: Its EC50 is greater than 300 µM.

Q: For `O=C1NC(=O)N(Cc2ccccc2Cl)C(=O)C1=CNc1ccc(F)cc1` [(5E)-1-(2-chlorobenzyl)-5-[(4-fluoroanilino)methylene]barbituric acid], which EC50 is on record?
A: Its EC50 is greater than 300 µM.

Q: `Cc1c(NC=C2C(=O)NC(=O)N(Cc3ccco3)C2=O)c(=O)n(-c2ccccc2)n1C` [(5E)-1-(2-furfuryl)-5-[[(3-keto-1,5-dimethyl-2-phenyl-3-pyrazolin-4-yl)amino]methylene]barbituric acid] was tested. Which EC50 did it give?
A: The EC50 was greater than 300 µM.

Q: With `C=c1c(C(=O)OC)c(O)c(=Cc2cccs2)n1-c1ccc(Cl)cc1` [(5E)-1-(4-chlorophenyl)-2-methyl-4-oxo-5-(thiophen-2-ylmethylidene)-3-pyrrolecarboxylic acid methyl ester] as the compound, how does the EC50 read?
A: The EC50 was greater than 300 µM.

Q: Which EC50 does the source give for `Cc1cc(C=C2C(=O)NC(=O)N(c3ccc(Cl)cc3)C2=O)c(C)n1C` [(5E)-1-(4-chlorophenyl)-5-[(1,2,5-trimethyl-3-pyrrolyl)methylidene]-1,3-diazinane-2,4,6-trione] here?
A: The EC50 was 47.7 µM.

Q: `CCOc1ccc(N2C(=O)NC(=O)C(=Cc3c[nH]c4ccccc34)C2=O)cc1` [(5E)-1-(4-ethoxyphenyl)-5-(1H-indol-3-ylmethylidene)-1,3-diazinane-2,4,6-trione] was tested. Which EC50 did it give?
A: The EC50 was 47 µM.

Q: For `O=C1NC(=O)N(CCc2ccc(F)cc2)C(=O)C1=CNCCCn1ccnc1` [(5E)-1-[2-(4-fluorophenyl)ethyl]-5-[(3-imidazol-1-ylpropylamino)methylene]barbituric acid], which EC50 is on record?
A: Its EC50 is greater than 300 µM.

Q: Which EC50 does the source give for `C=CCN1C(=O)NC(=O)C(=CNc2ccc(N(CC)CC)cc2)C1=O` [(5E)-1-allyl-5-[[4-(diethylamino)anilino]methylene]barbituric acid] here?
A: The EC50 was 113 µM.

Q: For `CCN(CC)c1ccc(NC=C2C(=O)NC(=O)N(Cc3ccccc3)C2=O)cc1` [(5E)-1-benzyl-5-[[4-(diethylamino)anilino]methylene]barbituric acid], which EC50 is on record?
A: The EC50 was greater than 300 µM.

Q: Which EC50 does the source give for `O=C1NC(=O)N(Cc2ccccc2)C(=O)C1=CNc1ccc(CN2CCOCC2)cc1` [(5E)-1-benzyl-5-[[4-(morpholin-4-ylmethyl)anilino]methylidene]-1,3-diazinane-2,4,6-trione] here?
A: The EC50 was greater than 300 µM.
